Experimental data published in patent US20210196724A1, “BIARYL COMPOSITIONS AND METHODS FOR MODULATING A KINASE CASCADE” (Athenex, Inc., priority 2016, published 2021).

How the values were obtained:
Format in all cases: cell-based
Settings in all cases: 72 h
TJ905 cells = assay: CellTiter-Glo cell viability, TJ905
Description: (§1) The cell viability of 50 cancer cell lines was studied after treatment with Compound 121. Inhibition concentration values at 50% (IC50) were determined using CellTiter-Glo luminescent cell viability assay after incubation with different compound concentrations. GI50 values were determined according to the examples described above. Each cell line was treated with Compound 121, a standard chemotherapy drug as a reference control, and culture medium as a vehicle control.
(§2) All cells were cultured in media supplemented with 10-15% FBS at 37° C. in the presence of 5% CO2 and at 95% humidity. The culture medium was purchased from GIBCO or Sigma, USA. Cisplatin was chosen as the reference control and purchased from Hospira Australia Pty Ltd. The cell lines studied are presented in Table 5.
(§3) Cells were harvested during a logarithmic growth period and cell number count was determined using Count-star. Cell concentrations were adjusted to 4.44×10^4 cells/mL with respective culture medium. 90 μL of cell suspensions were added to two 96-well plates (plates A and B) with a final cell density of 4×10^3 cells/well.
(§4) 10 μL of culture medium was added to each well of plate A for TO reading. The plate was allowed to equilibrate at room temperature for approximately 30 min. 50 μL of CellTiter-Glo was added to each well and the contents were mixed for 5 min on an orbital shaker to induce cell lysis. The plate was allowed to incubate at room temperature for 20 min to stabilize luminescent signal.
(§5) 10 μM Compound 121 in media was serially diluted 3.16-fold to achieve 9 dose levels. Similarly, 100 μM reference control in media was serially diluted 3.16-fold to prepare reference control solutions. 10 μL drug solution and 10 μL of reference control was dispensed into each well in plate B.
(§6) Test plate B was incubated for 72 h in a humidified incubator at 37° C. in the presence of 5% CO2 and then subjected to CTG assay. The plate was allowed to equilibrate at room temperature for about 30 min. 50 μL of CellTiter-Glo was added to each well and the contents were mixed for 5 min on an orbital shaker to induce cell lysis. The plate was allowed to incubate at room temperature for 20 min to stabilize luminescent signal.
(§7) IC50 and GI50 values for each of the 50 cell lines are presented in Table 6 and were calculated based on the dose-response curves depicted in FIGS. 1-50. The dose-response curves were fitted using nonlinear regression model with a sigmoidal dose response. The formula for calculating survival rate was calculated by the formula:
(§8) Survival rate (%)=(LumTest article−LumMedium control)/(LumNone treated−LumMedium control)×100.

Molt-4 cells = assay: CellTiter-Glo cell viability, Molt-4
Description: as §1, §2, §3, §4, §5, §6, §7, §8

SK-N-FI cells = assay: CellTiter-Glo cell viability, SK-N-FI
Description: as §1, §2, §3, §4, §5, §6, §7, §8

NCI-H226 cells = assay: CellTiter-Glo cell viability, NCI-H226
Description: as §1, §2, §3, §4, §5, §6, §7, §8

NCI-N87 cells = assay: CellTiter-Glo cell viability, NCI-N87
Description: as §1, §2, §3, §4, §5, §6, §7, §8

U251 cells = assay: CellTiter-Glo cell viability, U251
Description: as §1, §2, §3, §4, §5, §6, §7, §8

MDA-MB-468 cells = assay: CellTiter-Glo cell viability, MDA-MB-468
Description: as §1, §2, §3, §4, §5, §6, §7, §8

SW579 cells = assay: CellTiter-Glo cell viability, SW579
Description: as §1, §2, §3, §4, §5, §6, §7, §8

FaDu cells = assay: CellTiter-Glo cell viability, FaDu
Description: as §1, §2, §3, §4, §5, §6, §7, §8

AN3 CA cells = assay: CellTiter-Glo cell viability, AN3 CA
Description: as §1, §2, §3, §4, §5, §6, §7, §8

RPMI 8226 cells = assay: CellTiter-Glo cell viability, RPMI 8226
Description: as §1, §2, §3, §4, §5, §6, §7, §8

HuCCT1 cells = assay: CellTiter-Glo cell viability, HuCCT1
Description: as §1, §2, §3, §4, §5, §6, §7, §8

SK-MEL-28 cells = assay: CellTiter-Glo cell viability, SK-MEL-28
Description: as §1, §2, §3, §4, §5, §6, §7, §8

HCT-116 cells = assay: CellTiter-Glo cell viability, HCT-116
Description: as §1, §2, §3, §4, §5, §6, §7, §8

MDA-MB-231 cells = assay: CellTiter-Glo cell viability, MDA-MB-231
Description: as §1, §2, §3, §4, §5, §6, §7, §8

AsPC-1 cells = assay: CellTiter-Glo cell viability, AsPC-1
Description: as §1, §2, §3, §4, §5, §6, §7, §8

KYSE-150 cells = assay: CellTiter-Glo cell viability, KYSE-150
Description: as §1, §2, §3, §4, §5, §6, §7, §8

K-562 cells = assay: CellTiter-Glo cell viability, K-562
Description: as §1, §2, §3, §4, §5, §6, §7, §8

Raji cells = assay: CellTiter-Glo cell viability, Raji
Description: as §1, §2, §3, §4, §5, §6, §7, §8

BT474 cells = assay: CellTiter-Glo cell viability, BT474
Description: as §1, §2, §3, §4, §5, §6, §7, §8

JEG-3 cells = assay: CellTiter-Glo cell viability, JEG-3
Description: as §1, §2, §3, §4, §5, §6, §7, §8

[1] = top conc. 10 μM Compound 121, 100 μM cisplatin

Structure (SMILES): N.N.[Cl][Pt][Cl] [Cisplatin, reference compound]
- GI50 (TJ905 cells; read-out: Absolute GI50): 6.56 µM
- IC50 (TJ905 cells; read-out: Absolute IC50): 9.85 µM
- % inhibition at top conc. (TJ905 cells; [1]): 80.57%
- GI50 (Molt-4 cells; read-out: Absolute GI50): 0.61 µM
- IC50 (Molt-4 cells; read-out: Absolute IC50): 0.71 µM
- % inhibition at top conc. (Molt-4 cells; [1]): 99.96%
- GI50 (SK-N-FI cells; read-out: Absolute GI50): 5.8 µM
- IC50 (SK-N-FI cells; read-out: Absolute IC50): 9.26 µM
- % inhibition at top conc. (SK-N-FI cells; [1]): 99.77%
- GI50 (NCI-H226 cells; read-out: Absolute GI50): 5.72 µM
- IC50 (NCI-H226 cells; read-out: Absolute IC50): 7.36 µM
- % inhibition at top conc. (NCI-H226 cells; [1]): 94.81%
- GI50 (NCI-N87 cells; read-out: Absolute GI50): 0.88 µM
- IC50 (NCI-N87 cells; read-out: Absolute IC50): 2.26 µM
- % inhibition at top conc. (NCI-N87 cells; [1]): 90.08%
- GI50 (U251 cells; read-out: Absolute GI50): 3.07 µM
- IC50 (U251 cells; read-out: Absolute IC50): 3.98 µM
- % inhibition at top conc. (U251 cells; [1]): 87.70%
- GI50 (MDA-MB-468 cells; read-out: Absolute GI50): 0.65 µM
- IC50 (MDA-MB-468 cells; read-out: Absolute IC50): 0.93 µM
- % inhibition at top conc. (MDA-MB-468 cells; [1]): 99.91%
- GI50 (SW579 cells; read-out: Absolute GI50): 1.83 µM
- IC50 (SW579 cells; read-out: Absolute IC50): 2.24 µM
- % inhibition at top conc. (SW579 cells; [1]): 99.88%
- GI50 (FaDu cells; read-out: Absolute GI50): 1.96 µM
- IC50 (FaDu cells; read-out: Absolute IC50): 2.25 µM
- % inhibition at top conc. (FaDu cells; [1]): 98.16%
- GI50 (AN3 CA cells; read-out: Absolute GI50): 3.68 µM
- IC50 (AN3 CA cells; read-out: Absolute IC50): 4.38 µM
- % inhibition at top conc. (AN3 CA cells; [1]): 99.95%
- GI50 (RPMI 8226 cells; read-out: Absolute GI50): 2.38 µM
- IC50 (RPMI 8226 cells; read-out: Absolute IC50): 3.62 µM
- % inhibition at top conc. (RPMI 8226 cells; [1]): 99.76%
- GI50 (HuCCT1 cells; read-out: Absolute GI50): 6.59 µM
- IC50 (HuCCT1 cells; read-out: Absolute IC50): 8.44 µM
- % inhibition at top conc. (HuCCT1 cells; [1]): 90.42%
- GI50 (SK-MEL-28 cells; read-out: Absolute GI50): 7.09 µM
- IC50 (SK-MEL-28 cells; read-out: Absolute IC50): 8.9 µM
- % inhibition at top conc. (SK-MEL-28 cells; [1]): 99.29%
- GI50 (HCT-116 cells; read-out: Absolute GI50): 4.14 µM
- IC50 (HCT-116 cells; read-out: Absolute IC50): 4.35 µM
- % inhibition at top conc. (HCT-116 cells; [1]): 95.29%
- GI50 (MDA-MB-231 cells; read-out: Absolute GI50): 18.6 µM
- % inhibition at top conc. (MDA-MB-231 cells; [1]): 85.68%
- GI50 (AsPC-1 cells; read-out: Absolute GI50): 2.73 µM
- IC50 (AsPC-1 cells; read-out: Absolute IC50): 3.31 µM
- % inhibition at top conc. (AsPC-1 cells; [1]): 72.39%
- GI50 (KYSE-150 cells; read-out: Absolute GI50): 6.26 µM
- IC50 (KYSE-150 cells; read-out: Absolute IC50): 8.14 µM
- % inhibition at top conc. (KYSE-150 cells; [1]): 91.28%
- GI50 (K-562 cells; read-out: Absolute GI50): 4.21 µM
- IC50 (K-562 cells; read-out: Absolute IC50): 4.51 µM
- % inhibition at top conc. (K-562 cells; [1]): 97.94%
- GI50 (Raji cells; read-out: Absolute GI50): 1.74 µM
- IC50 (Raji cells; read-out: Absolute IC50): 1.97 µM
- % inhibition at top conc. (Raji cells; [1]): 94.98%
- GI50 (BT474 cells; read-out: Absolute GI50): 39.3 µM
- IC50 (BT474 cells; read-out: Absolute IC50): 45.1 µM
- % inhibition at top conc. (BT474 cells; [1]): 59.96%
- GI50 (JEG-3 cells; read-out: Absolute GI50): 5.5 µM
- IC50 (JEG-3 cells; read-out: Absolute IC50): 9.4 µM
- % inhibition at top conc. (JEG-3 cells; [1]): 99.90%
